Test results published in patent US5310920A, “N-vinylimidazolidine derivatives insecticides containing same as an effective ingredient” (priority 1991, dated 1994).
Converted amounts (≈) assume the structure as drawn. Where two headings read alike, the source gives them in different places.

Experiments:
[1] = test system: Laodelphax striatellus Fallen - smaller brown planthopper; experiment: Test Example 1: Effect on smaller brown planthopper, mortality; assay type: in vivo; conditions: 5 ppm, 48 hours, 25° C., ten female adults, rice seedlings
Procedure: Effect on Laodelphax sriatellus Fallen--smaller brown planthopper
(§1) The emulsion prepared in Formulation Example 1 was diluted to a predetermined concentration and 2 ml of the diluted emulsion was applied over a bundle of several rice seedlings (about third leaf stage). After drying in air, the treated seedlings were covered with a metal gauze cylinder, in which ten female adults of the smaller brown planthopper were released, followed by placing in a temperature controlled room at 25° C. After 48 hours, the mortality was checked.

[2] = test system: resistant strain of Nephotettix cincticeptus Uhler - resistant green rice leafhopper; experiment: Test Example 2: Effect on resistant green rice leafhopper, mortality; assay type: in vivo; conditions: Nephotettix cincticeps
Procedure: (§2) Effect on resistant strain of Nephotettix cincticeptus Uhler--resistant green rice leafhopper
as §1, with “and 3” for “and 2”, “the leafhopper that is resistant to organophosphate and carbamate insecticides” for “the smaller brown planthopper”

[3] = test system: Laodelphax striatellus Fallen - smaller brown planthopper; experiment: Test Example 5: Effect on smaller brown planthopper, LC50; assay type: in vivo; conditions: 48 hours, 25° C.
Procedure: Effect on Laodelphax striatellus Fallen--smaller brown planthopper
(§3) The emulsion prepared in Formulation Example 1 was diluted to predetermined concentrations, and 2 ml of each diluted emulsion was applied over a bundle of several rice seedlings (about third leaf stage). After drying in air, the treated seedlings were covered with a metal gauze cylinder, in which ten female adults of the smaller brown planthopper were released, followed by placing in a temperature controlled room at 25° C. After 48 hours, the mortality was checked, from which the medium-lethal concentration (LCO) was obtained.

[4] = test system: resistant strain of Nephotettix cincticeptus Uhler - resistant green rice leafhopper; experiment: Test Example 6: Effect on resistant green rice leafhopper, LC50; assay type: in vivo; conditions: Nephotettix cincticeps, 48 h
Procedure: as §2
as §3, with “leafhopper that is resistant to organophosphate and carbamate insecticides” for “smaller brown planthopper”, “50 %-lethal” for “medium-lethal”, “(LC50)” for “(LCO)”

[5] = test system: Myzus persicae Suizer - green peach aphid; experiment: Test Example 7: Effect on green peach aphid, density of living insects; assay type: in vivo; conditions: after three days; 100 × (living insects after / before treatment)
Source text: Effect on Myzus persicae Suizer--green peach aphid
After the application, the seedlings were placed in the greenhouse and, after three days, the number of the aphids was checked, from which the density of the living insects was obtained. The tests were repeated two times.
(§4) Density of Living Insects = 100 × (number of living insects after
(§5) treatment/number of living insects before treatment)

[6] = test system: Callosobruchus chinensis Linne - Azuki bean weevil; experiment: whole plant or invertebrate; assay type: in vivo; conditions: 48 h
Procedure: Effect on Callosobruchus chinensis Linne--Azuki bean weevil:
An acetone solution of the compound of the invention was added to a Petri dish with a diameter of 9 cm, followed by removal of the acetone by evaporation. Twenty female adults of the Azuki bean weevil, which were 2 to 3 days after emergence were placed in the dish at 25° C. After 48 hours, the mortality was checked.

[7] = Test Example 8: Acute Toxicity Test to Mice; conditions: mouse, in vivo, po; forced peroral administration, corn oil, 6-week mice, up to 14 days
Procedure: Acute Toxicity Test to Mice
The compound of the invention having a predetermined concentration was dissolved in corn oil and applied to 6-week mice by forced peroral administration. Up to 14 days from the administration, the number of the died mice was counted periodically, from which the 50 %-lethal […] (LD50) was obtained. One group for the test comprised ten mice.

[8] = test system: Myzus persicae Suizer - green peach aphid; experiment: Test Example 4: Effect on green peach aphid, density of living insects; assay type: in vivo; conditions: 50 ppm, after three days; 100 × (living insects after / before treatment)
Procedure: Effect on Myzus persicae Suizer green peach aphid
20 ml of a dilution of the emulsion prepared in Formulation Example 1 was sprayed over potted eggplant seedlings (fourth or fifth leaf stage), as having been grown in a greenhouse, on which the green peach aphids had been parasitic. After the application, the seedlings were placed in the greenhouse and, after three days, the number of the aphids was checked.
as §4, §5

[9] = 3 ppm, 48 hours, 25° C., ten female adults resistant to organophosphate and carbamate insecticides, read-out: Mortality (%)

With `COCN1CCN(Cc2ccc(Cl)nc2)C1=N[N+](=O)[O-]` [Reference Chemical (2), 1(2-chloropyridin-5-ylmethyl)-2-nitroimino-3-methoxymethylimidazolidine, reference compound] the “Mortality (%)” value [1] was 20% and the mortality at 3 ppm [2, 9] was 30%.

For `O=[N+]([O-])N=C1N(C=Cc2ccccc2)CCN1Cc1ccc(Cl)nc1` [No. 2], the mortality at 3 ppm ([2]; 48 h) was 100%, the LC50 [3] was 3 ppm and the LC50 [4] was 1.5 µg/mL (≈ 4.19 µM). For the same molecule, the “Density of Living Insects” value [5] was 20.

With `C=CN1CCN(Cc2ccc(Cl)nc2)C1=N[N+](=O)[O-]` [No. 1] the “Mortality (%)” value [1] was 100% and the mortality at 3 ppm [2, 9] was 100%.

With `CCCCC(=CN1CCN(Cc2ccc(Cl)nc2)C1=N[N+](=O)[O-])CC` [No. 33, 1-(2-chloropyridin-5-ylmethyl)-2-nitroimino-3-(2-ethyl-1hexenyl)imidazlidine] the “Mortality (%)” value [1] was 100% and the mortality at 3 ppm [2, 9] was 100%.

With `O=C(NC=CN1CCN(Cc2ccc(Cl)nc2)C1=N[N+](=O)[O-])c1ccccc1` [No. 41] the “Mortality (%)” value [1] was 100%.

With `O=[N+]([O-])N=C1N(C=Cc2ccccc2Cl)CCN1Cc1ccc(Cl)nc1` [No. 12] the “Mortality (%)” value [1] was 100%.

`CCOP(=S)(OCC)Oc1cc(C)nc(C(C)C)n1` [Diazinone] gave a mortality at 0.01 mg/dish, 0.01 mg/dish [6] of 58%.

For `O=[N+]([O-])N=C1N(C=Cc2ccc(Cl)cc2)CCN1Cc1ccc(Cl)nc1` [No. 14], the “Mortality (%)” value [1] was 100%.

In the case of `O=[N+]([O-])N=C1N(CCc2ccc(Cl)cc2)CCN1Cc1ccc(Cl)nc1` [Reference Chemical (1), 1(2-chloropyridin-5-ylmethyl)-2-nitroimino-3-{2-(4-chlorophenyl)ethyl}imiazolidine, reference compound], the “Mortality (%)” value [1] is reported as 20% and the mortality at 3 ppm [2, 9] is reported as 25%.

For `O=[N+]([O-])N=C1N(C=Cc2ccc3c(c2)OCO3)CCN1Cc1ccc(Cl)nc1` [No. 11], the “Mortality (%)” value [1] was 100% and the mortality at 3 ppm [2, 9] was 100%.

With `O=[N+]([O-])N=C1N(C=CCc2ccccc2)CCN1Cc1ccc(Cl)nc1` [No. 40] the “Mortality (%)” value [1] was 100% and the mortality at 3 ppm [2, 9] was 100%.

In the case of `CC(C)C=CN1CCN(Cc2ccc(Cl)nc2)C1=N[N+](=O)[O-]` [No. 27], the LC50 [3] is reported as 1 ppm, the LC50 [4] is reported as 0.3 µg/mL (≈ 0.927 µM) and the “Density of Living Insects” value [5] is reported as 0. For the same molecule, the LD50 at 336 h [7] was 1000 mg/kg.

For `COc1ccc(C=CN2CCN(Cc3ccc(Cl)nc3)C2=N[N+](=O)[O-])cc1` [No. 10], the mortality at 3 ppm [2, 9] was 100% and the LD50 at 336 h [7] was greater than 5000 mg/kg.

For `C=CCN1CCN(Cc2ccc(Cl)nc2)C1=N[N+](=O)[O-]` [Reference Chemical 1, 1(2-chloropyridin-5-ylmethyl)-2-nitroimino-3-allylimidazolidine, reference compound], the LC50 [3] was 10 ppm, the LC50 [4] was 3 µg/mL (≈ 10.1 µM) and the “Density of Living Insects” value [5] was 25. The LD50 at 336 h [7] was 100 to 200 mg/kg.

For `CCSC=CN1CCN(Cc2ccc(Cl)nc2)C1=N[N+](=O)[O-]` [No. 42, 1-(2-chloropyridin-5-ylmethyl)-2-nitroimino-3-(2-ethylthiovinyl)imidazolidine], the “Mortality (%)” value [1] was 100%.

For `O=[N+]([O-])N=C1N(CCc2ccccc2)CCN1Cc1ccc(Cl)nc1` [Reference Chemical 2, 1(2-chloropyridin-5-ylmethyl)-2-nitroimino-3-(2-phenylethyl)imidazolidine, reference compound], the LC50 [3] was 20 ppm, the LC50 [4] was 10 µg/mL (≈ 27.8 µM) and the “Density of Living Insects” value [5] was 108.

With `COP(=O)(OC)OC=C(Cl)Cl` [DDVP, 0,0-dimethyl-0-(2,2-dichlorovinyl)phosphate] the “Density of Living Insects” value [8] was 30.
